Assay [1] concerns the target T1, Ca^2+ uniporter (Homo sapiens, UniProt Q8NE86).
T1 construct: The effects of several intracellular Ca^2+ modulating agents (ICMAs) on permeabilized HepG2 cells were examined; endogenous in cells; host or cells: HepG2 (ATCC HB-8065), digitonin-permeabilized, in suspension
T1 sequence (Q8NE86 51-351): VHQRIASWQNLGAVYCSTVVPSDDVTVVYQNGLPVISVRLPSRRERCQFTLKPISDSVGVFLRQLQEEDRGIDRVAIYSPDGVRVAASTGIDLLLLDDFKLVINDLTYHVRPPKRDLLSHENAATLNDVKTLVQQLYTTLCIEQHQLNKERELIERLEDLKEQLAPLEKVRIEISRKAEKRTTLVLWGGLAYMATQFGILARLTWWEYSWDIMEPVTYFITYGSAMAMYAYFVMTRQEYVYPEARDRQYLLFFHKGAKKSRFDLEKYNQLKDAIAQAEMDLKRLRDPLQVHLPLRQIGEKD
T1 sequence (Q9H4I9 48-107 partner limits assumed): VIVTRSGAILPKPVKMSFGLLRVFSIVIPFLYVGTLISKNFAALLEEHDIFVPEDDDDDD
Kind of assay: Ca^2+ uniporter assay, digitonin-permeabilized suspended HepG2 cells, Calcium-Green-5N on FLIPR, ICMA added between two Ca^2+ pulses. The format is cell-based. The conditions noted are these: 5 micrograms/milliliter oligomycin, 2 micromolar rotenone, 1 micromolar FCCP; for release of sequestered Ca^2+ from mitochondria after addition of the agent: added about 3 min after first 12 micromolar Ca^2+ pulse, thapsigargin present; for mitochondrial uptake of the second Ca^2+ pulse: second Ca^2+ pulse at about t=6 min, 1 micromolar RU360.
Procedure: A master mix solution (MM Solution) was prepared by the addition of glutamate and malate to final concentrations of 5 millimolar each, MgCl2 to a final concentration of 1 millimolar, EGTA to a final concentrations of 0 to 8 micromolar, and Calcium-Green-5N to a final concentration of 0.1 to 1.0 micromolar, to a basic KCl-based respiratory media (“BReM”) that is described in Table 3. […] The hexapotassiun salt Calcium-Green-5N (Molecular Probes, Eugene, Oreg.) in the MM Solution is a fluorescent dye that has low binding affinity to Ca^2+.
Thapsigargin (Calbiochem, San Diego, Calif.), a Ca^2+ uptake inhibitor of the endoplasmic reticulum (ER), was added to the MM Solution to a final concentration of 1 micromolar to yield a solution designated “MM-T” (i.e., Master Mix with Thapsigargin).
The cell membrane permeabilizing agent digitonin (Sigma, St. Louis, Mo.) was added to MM-T to a final concentration of from about 0.007% to about 0.03% to yield a solution referred to as “MM-TD” (i.e., Master Mix with Thapsigargin and digitonin. CaCl2 was added to MM-T to provide a solution with a determined final concentration of Ca^2+ for the determination of intracellular Ca^2+ flux.
The effects of several intracellular Ca^2+ modulating agents (ICMAs) on permeabilized HepG2 cells were examined as follows. The mitochondrial respiratory inhibitors oligomycin (Calbiochem, San Diego, Calif.) and rotenone (Calbiochem) were added to MM-T to final concentrations of 50 micrograms/milliliter and 20 micromolar, respectively. The uncoupler FCCP was similarly added to MM-T to a 10× concentration (10 micromolar) to yield a stock solution of FCCP, MM-TF (i.e., Master Mix with Thapsigargin and FCCP). The ICMA Ru360, which blocks Ca^2+ uptake into the mitochondria by the calcium uniporter, was added to MM-T to a concentration of 100 micromolar to yield MM-T360 (i.e., Master Mix with Thapsigragin and Ru360). CaCl2 was added to MM-T to yield a 10× solution of CaCl2 (120 micromolar) in MM-T.
HepG2 cells were cultured in Eagle's minimal essential medium (MEM) with non-essential amino acids, sodium pyruvate and Earle's balanced salt solution (BSS), 90%; fetal bovine serum (FBS), 10%. Cells were centrifuged (500×g) and the growth media was aspirated from the pellet. The HepG2 cells were resuspended in MM-TD at a concentration of 1×10^7 cells/milliliter, and 100 microliters of the resuspended permeabilized cells were dispensed into wells of a 96-well Costar 3603 microplate. The plate was placed into a FLIPR™ prewarmed to 37° C. MM-T, 120 micromolar Ca^2+, was dispensed into the cell-containing wells at a volume of 11.1 microliters, yielding a final assay concentration of 12 micromolar Ca^2+. The addition of Ca^2+ at this stage of the assay is referred to as the first calcium pulse and the time at which Ca^2+ is added is designated t=0.
After about three minutes (i.e., at about t=3 min.), 12.3 microliters of one of the ICMA solutions were dispensed into wells containing permeabilized cells to yield final assay concentrations of 5 micrograms/milliliter oligomycin, 2 micromolar rotenone, 1 micromolar FCCP, 1 micromolar RU360, and MM-T (no ICMA).
Cells were exposed to a second calcium pulse by the addition of 13.7 microliters of MM-T, 120 micromolar Ca^2+, to the cells after an additional 3 minutes (i.e., at about t=6 min.).

Assay [2] has as its system Ca^2+ uniporter. Kind of assay: Ca^2+ uniporter assay, adherent permeabilized MixCon cells, Calcium-Green-5N on FLIPR, with respiratory inhibitors. The format is cell-based. The settings on record: 10 micromolar Ca^2+; for Ca^2+-5N fluorescence after the second Ca^2+ pulse, presence of succinate: oligomycin 5 micrograms/milliliter and rotenone 2 micromolar together (MM-GMS-TD-OR), 5 millimolar succinate; for Ca^2+-5N fluorescence after the second Ca^2+ pulse, presence of succinate / Ca^2+-5N fluorescence after the second Ca^2+ pulse, absence of succinate: FIG. 8; for signal corresponding to extramitochondrial calcium after each Ca^2+ pulse: oligomycin 5 micrograms/milliliter or rotenone 2 micromolar, three pulses, FIG. 7; for Ca^2+-5N fluorescence after the second Ca^2+ pulse, absence of succinate: oligomycin 5 micrograms/milliliter, rotenone 2 micromolar, glutamate/malate medium. As to the method: Mitochondrial inhibitors of oxidative phosphorylation, oligomycin and rotenone, were used to observe the effect of decreased membrane potential of mitochondria on cytosol Ca^2+ levels in the adherent cell line MixCon. The adherent MixCon cells in Dulbecco's modified Eagle's medium and 10% FBS growth media were dispensed into wells of a 96-well microtiter plate at a concentration of about 6×10^4 cells in 100 microliters per well 48 hours prior to assay. Just prior to their use the growth media was aspirated from the wells. Ninety (90) microliters of MM-TD with oligomycin (5 micrograms/milliliter) or rotenone (2 micromolar), or MM-TD without either inhibitor, were added to the cells. The plate was placed in a FLIPR™ system, and three doses of the 10× stock (100 micromolar) solution of calcium were dispensed into the different wells at approximately 2 minute intervals with increasing volumes (10, 11.1, and 12.3 microliters respectively), resulting in a constant concentration of 10 micomolar Ca^2+ throughout the course of the assay. Emissions at the 531 nm wavelength were monitored by a FLIPR™ as a measure of extramitochondrial Ca^2+-Green-5N fluorescence. The signal corresponding to extramitochondrial calcium increased after each pulse and, in samples when remained high when in the presence of the two inhibitors. Alternatively, Ca^2+ is sequestered in mitochondria of cells not exposed to inhibitors (FIG. 7).
Another assay was performed to examine the effect by the respiratory inhibitors oligomycin and rotenone and subsequent release of Ca^2+ from mitochondria in the presence or absence of succinate in MixCon cells. Two different master mixes (MM and MM-GMS) were prepared with MM prepared as previously described. MM-GMS was prepared by the addition of glutamate, malate and succinate to final concentrations of 5 millimolar each, MgCl2 to a final concentration of 1 millimolar, EGTA to a final concentration of 10 micromolar, and Calcium-Green-5N to a final concentration of 0.1 micromolar, to a basic KCl-based respiratory media (BReM, Table 3). Thapsigargin was added to the MM and MM-GMS to a final concentration of 1 micromolar to yield MM-T and MM-GMS-T (where “T” indicates Thapsigargin and “GMS” indicates glutamate, malate and succinate. The cell permeabilizing agent digitonin was added to MM-T and MM-GMS-T to a final concentration of 0.03% to yield solutions designated as MM-TD and MM-GMS-TD. As indicated in some instances, the mitochondrial inhibitors oligomycin and rotenone (Calbiochem) were each added to solutions of MM-TD and MM-GMS-TD to final concentrations of 5 micrograms/milliliter and 2 micromolar, respectively.
CaCl2 was added to MM-T and MM-GMS-T to a concentration of 50 micromolar Ca^2+ to yield 5× Ca^2+ solutions in MM-T and MM-GMS-T, respectively. Versions of the 5× Ca^2+ stock solutions comprising respiratory inhibitors were also prepared (oligomycin, final concentration of 50 micrograms/milliliter; rotenone, 20 micromolar).
The MixCon cells, in Dulbecco's modified Eagle's medium and 10% FBS growth media, were dispensed into wells of a 96-well Costar 3603 microtiter plate at a concentration of 6×10^4 cells in one hundred microliters per well, 48 hours prior to the assay. Just prior to their use the growth media was aspirated from the wells. Eighty (80) microliters of MM-TD, MM-GMS-TD, MM-TD-O, MM-TD-R, and MM-GMS-TD-OR (where “O” oligomycin and “R” signifies rotenone) were dispensed into wells containing the cells. The microtiter plate was placed in a FLIPR™ preheated to 37° C. and an initial injection of 20 microliters of the 5× stock solutions (50 micromolar) of Ca^2+, with olygomycin, rotenone or no additions, were dispensed into the appropriate wells such that the Ca^2+ concentration in the assay is 10 micromolar and wells with the inhibitors remain at constant assay concentrations.
A second pulse of 25 microliters of the 5× solution was supplied after approximately 5 minutes. […]

Assay [3] has as its system calcium uniporter (CaUP). Kind of assay: Calcium uniporter (CaUP) functional assay, suspended permeabilized L6 cells, FLIPR. In kind it is cell-based, rat. The conditions noted are these: 5 microgram/milliliter oligomycin and 2 micromolar rotenone together, 16 micromolar Ca^2+; FIG. 9. As to the method: A series of functional assays were performed on non-adherent cell lines in order to optimize the mitochondria Ca—UP assay on FLIPR using Calcium-Green-5N and digitonin permeabilized cells. A dose response of Ca^2+ pulses with and without the addition of mitochondria oxidative respiration uncouplers were performed utilizing cells from […]. MM with thapsigarin, MM-T, and digitonin, MM-TD, are prepared as previously described. Ten times (10×) Ca^2+ media is prepared by adding CaCl2 (160 micromolar) to MM-T. The L6 cells were suspended in the cell permeabilizing respiratory media MM-TD at a concentration of 1×10^7 cells per milliliter. […] Emissions resulting from [Ca^2+:Calcium-Green-5N] complexes were monitored at the appropriate wavelength so as to follow changes in intracellular Ca^2+ levels throughout the assay.
Functional assays of the calcium uniporter (CaUP) were similarly performed on non-adherent L6 cells, as described above, with respiratory inhibitors oligomycin and rotenone in order to observe the effects of elimination of the membrane potential using this high throughput FLIPR. […] The emission wavelength was monitored and intracellular Ca^2+ levels observed throughout assay. […] When media with no Ca^2+ is added, the fluorescence changes only minimally (rows 3 and 4)] […]

In assay [4] the target is T1, Ca^2+ uniporter. Kind of assay: High-throughput uniporter assay of different compounds, permeabilized HepG2 cells with and without thapsigargin, FLIPR II. In kind it is cell-based. The conditions noted are these: test compounds 1 micromolar.
Source text: The high-throughput uniporter assay protocol, carried out as described above for suspension cells, was used to determine the effect of different compounds on mitochondria and extramitochondrial Ca^2+ concentrations in the presence or absence of the Ca^2+ uptake inhibitor of the endoplasmic reticulum, thapsigargin (Calbiochem). Agents examined in this assay include calcium channel inhibitors, pro- and anti-oxidants, mitochondrial inhibitors and uncouplers, and the Ca—UP inhibitor Ru360. On the day of the assay, solutions of the respiratory/cell permeabilizing media containing digitonin with thapsigarin (MM-TD) and without thapsigarin (MM-D) were prepared as previously described. Calcium chloride was added to each to a final concentration of 6 micromolar Ca^2+, resulting in MM-TD, 6 uM Ca and MM-D, 6 uM Ca. A MM solution was prepared with a 10× Ca^2+ concentration of 200 micromolar for the second Ca^2+ pulse. The Ca^2+-uniporter inhibitor Ru360 was prepared at a 10× concentration of 100 microliters in MM. Ten times (10×) stock solutions of the other agents were prepared for the assay by the addition of the compounds to final concentrations of 10 micromolar into MM. […] Controls include water and 10% DMSO (Sigma) in MM.
Cells of the HepG2 cell line (hepatocellular carcinoma, ATCC HB-8065) were trypsinized from near-confluent flasks in growth media (Eagle's MEM with non-essential amino acids, sodium pyruvate and Earle's BSS, 90%; FBS 10%). Cells were centrifuged, growth media was aspirated, and cells were resuspended to a concentration of 1×10^7 cells per milliliter in MM-TD, 6 uM Ca, or MM-D, 6 uM Ca. One hundred (100) microliters of the cell suspension (about 1×10^6 cells) were delivered to wells of a microtiter plate. The plate was placed in a FLIPR™ II (used in 96-well format) warmed to 37° C. An 11.1 microliter aliquot of the 10× stock solutions with water or DMSO (controls), Ru360 (Ca—UP inhibitor), or the test compounds, were dispensed into designated wells such that the assay concentration of DMSO is 0.1%, Ru360 is 10 micromolar, and each of the test compounds are at 1 micromolar concentrations. After an additional three minutes, a second addition of 12.3 microliters of the 10× CaCl2 (200 micromolar Ca^2+), was dispensed into the wells of the microtiter plate resulting in assay concentrations of 20 micromolar Ca^2 (Extramitochondrial Ca^2+ bound to the calcium indicator dye was monitored throughout and profiles of each assay; the results are presented in FIG. 12, with all thapsigargin minus (thaps−) assays in wells corresponding to columns 1-6 and thapsigargin plus (thaps+) assays in wells corresponding to columns 7-12.

Molecules are shown by their SMILES.

Data on two molecules can be found in US6808873B2, “Screening assays using intramitochondrial calcium” (MitoKor, Inc., priority 2000, dated 2004).

Turning to `CC[C@H]1/C=C/C=C/C[C@@H](C)[C@H](O)[C@@](C)(O)C(=O)[C@@H](C)[C@H](O)[C@@H](C)C(=O)[C@@H](C)[C@H](O)[C@@H](C)/C=C/C(=O)O[C@@H]2[C@H](C)[C@H](CC1)O[C@]1(CC[C@H](C)[C@H](C[C@@H](C)O)O1)[C@H]2C` [oligomycin], in assay [1], the “release of sequestered Ca^2+ from mitochondria after addition of the agent” value was “caused the release of Ca^2+ from mitochondria into the cytosol” and the “mitochondrial uptake of the second Ca^2+ pulse” value is on record as “could not sequester the added Ca^2+”. Moreover, in assay [2], the “Ca^2+-5N fluorescence after the second Ca^2+ pulse, presence of succinate” value is reported as “reduction of Ca^2+-5N fluorescence after the second Ca^2+ pulse”; the “signal corresponding to extramitochondrial calcium after each Ca^2+ pulse” value is on record as “remained high”; the “Ca^2+-5N fluorescence after the second Ca^2+ pulse, absence of succinate” value is reported as “elevated levels of Ca^2+-5N fluorescence after the second Ca^2+ pulse”. Further, the “mitochondrial sequestration of added Ca^2+” value in assay [3] is on record as “Ca^2+ is not sequestered in the mitochondria”.

As for `C=C(C)[C@H]1Cc2c(ccc3c2O[C@@H]2COc4cc(OC)c(OC)cc4[C@@H]2C3=O)O1` [rotenone], in assay [1], the “release of sequestered Ca^2+ from mitochondria after addition of the agent” value is given as “caused the release of Ca^2+ from mitochondria into the cytosol” and the “mitochondrial uptake of the second Ca^2+ pulse” value was “could not sequester the added Ca^2+”. Further, in assay [2], the “Ca^2+-5N fluorescence after the second Ca^2+ pulse, presence of succinate” value was “reduction of Ca^2+-5N fluorescence after the second Ca^2+ pulse”; the “signal corresponding to extramitochondrial calcium after each Ca^2+ pulse” value is reported as “remained high”; the “Ca^2+-5N fluorescence after the second Ca^2+ pulse, absence of succinate” value is “elevated levels of Ca^2+-5N fluorescence after the second Ca^2+ pulse”. Besides, in assay [3], the “mitochondrial sequestration of added Ca^2+” value is reported as “Ca^2+ is not sequestered in the mitochondria”. For the same molecule, in assay [4], the “uniporter activity profile after the 20 micromolar Ca^2+ pulse” value is given as “Ca^2+ can no longer be sequestered by the mitochondria”.
